Measured values reported in ChEMBL document CHEMBL6177964 (Eur J Med Chem, 2025).
pIC50, pKd: −log10 of the molar value. Calls of active or inactive are those of the source. The calls are words filed in the database; no cut-off is given here. Residues, ends and D or L forms follow the SMILES beside them.

Columns and labels:
[1] = target: T1, Angiotensin-converting enzyme (Homo sapiens, UniProt P12821); assay: Inhibition of ACE (unknown origin) preincubated with compound for 5 mins and measured after 60 mins
[2] = target: T1, Angiotensin-converting enzyme; assay: Binding affinity to ACE (unknown origin) assessed as change in entropy (-TdeltaS) at 800 to 1400 nM by isothermal titration calorimetric analysis; conditions: dose 800-1400 nM
[3] = target: T1, Angiotensin-converting enzyme; assay: Binding affinity to ACE (unknown origin) assessed as change in enthalpy at 800 to 1400 nM by isothermal titration calorimetric analysis; conditions: dose 800-1400 nM
[4] = target: T1, Angiotensin-converting enzyme; assay: Binding affinity to ACE (unknown origin) assessed as change in entropy (deltaS) at 800 to 1400 nM by isothermal titration calorimetric analysis; conditions: dose 800-1400 nM
[5] = target: T1, Angiotensin-converting enzyme; assay: Binding affinity to ACE (unknown origin) measured within 14 mins
Rattus norvegicus [6] = assay: Acute antihypertensive activity in spontaneously hypertensive male Wistar Kyoto rat assessed as reduction in systolic blood pressure at 5 mg/kg administered via gavage measured after 2 hrs by tail-artery manometry; type: functional
Rattus norvegicus [7] = assay: Acute antihypertensive activity in spontaneously hypertensive male Wistar Kyoto rat assessed as reduction in diastolic blood pressure at 5 mg/kg administered via gavage measured after 2 hrs by tail-artery manometry; type: functional
Rattus norvegicus [8] = assay: Subacute antihypertensive activity in spontaneously hypertensive male Wistar Kyoto rat assessed as reduction in systolic blood pressure at 2.5 mg/kg administered via gavage for 4 weeks and measured at 22 hrs post dose by tail-artery manometry; type: functional
Rattus norvegicus [9] = assay: Subacute antihypertensive activity in spontaneously hypertensive male Wistar Kyoto rat assessed as reduction in diastolic blood pressure at 2.5 mg/kg administered via gavage for 4 weeks and measured at 22 hrs post dose by tail-artery manometry; type: functional
Rattus norvegicus [10] = assay: Effect on spontaneously hypertensive male Wistar Kyoto rat assessed as reduction in serum ACE activity by measuring hippuric acid level at 2.5 mg/kg administered via gavage for 4 weeks by RP-HPLC analysis; type: functional, organism-based
Rattus norvegicus [11] = assay: Effect on spontaneously hypertensive male Wistar Kyoto rat assessed as reduction in Ang II level in serum at 2.5 mg/kg administered via gavage for 4 weeks by ELISA; type: functional, organism-based
Rattus norvegicus [12] = assay: Antihypertensive activity in spontaneously […] male Wistar Kyoto rat assessed as increase in fecal acetic acid level at 5 mg/kg administered via gavage for 4 weeks and measured at 22 hrs post dose by RP-HPLC analysis relative to control; type: functional
Rattus norvegicus [13] = assay: Antihypertensive activity in spontaneously […] male Wistar Kyoto rat assessed as increase in fecal propionic acid level at 5 mg/kg administered via gavage for 4 weeks and measured at 22 hrs post dose by RP-HPLC analysis relative to control; type: functional
Rattus norvegicus [14] = assay: Antihypertensive activity in spontaneously […] male Wistar Kyoto rat assessed as increase in fecal butyric acid level at 5 mg/kg administered via gavage for 4 weeks and measured at 22 hrs post dose by RP-HPLC analysis relative to control; type: functional
Rattus norvegicus [15] = species on record: Rattus norvegicus; assay: Prevention of gut microbiota dysbiosis in spontaneously hypertensive male Wistar Kyoto rat model assessed as increase in bacteroidetes abundance; type: functional, organism-based
Rattus norvegicus [16] = species on record: Rattus norvegicus; assay: Prevention of gut microbiota dysbiosis in spontaneously hypertensive male Wistar Kyoto rat model assessed as decrease in epsilonbacteraeota abundance; type: functional, organism-based
Rattus norvegicus [17] = species on record: Rattus norvegicus; assay: Prevention of gut microbiota dysbiosis in spontaneously hypertensive male Wistar Kyoto rat model assessed as increase in enterobacteriaceae abundance relative to control; type: functional
Rattus norvegicus [18] = species on record: Rattus norvegicus; assay: Prevention of gut microbiota dysbiosis in spontaneously hypertensive male Wistar Kyoto rat model assessed as increase in roseburia abundance; type: functional, organism-based
[19] = target: T1, Angiotensin-converting enzyme; assay: Inhibition of ACE (unknown origin)
Rattus norvegicus [20] = assay: Antihypertensive activity in spontaneously hypertensive male rat assessed as reduction in systolic blood pressure at 5 mg/kg, IG measured after 24 hrs by tail-cuff method; type: functional
Rattus norvegicus [21] = assay: Antihypertensive activity in spontaneously hypertensive male rat assessed as reduction in diastolic blood pressure at 5 mg/kg, IG measured after 24 hrs by tail-cuff method; type: functional
[22] = target: T1, Angiotensin-converting enzyme; assay: Binding affinity to ACE (unknown origin) assessed as change in Gibbs free energy at 800 to 1400 nM by isothermal titration calorimetric analysis; conditions: dose 800-1400 nM
[23] = target: T1, Angiotensin-converting enzyme; assay: Binding affinity to ACE (unknown origin) assessed as dissociation constant by isothermal titration calorimetric analysis
[24] = target: T1, Angiotensin-converting enzyme; assay: Binding affinity to ACE (unknown origin) measured at 20 mins
Rattus norvegicus [25] = assay: Acute antihypertensive activity in spontaneously hypertensive male Wistar Kyoto rat assessed as reduction in systolic blood pressure at 2.5 mg/kg administered via gavage measured after 4 hrs by tail-artery manometry; type: functional
Rattus norvegicus [26] = assay: Acute antihypertensive activity in spontaneously hypertensive male Wistar Kyoto rat assessed as reduction in diastolic blood pressure at 2.5 mg/kg administered via gavage measured after 6 hrs by tail-artery manometry; type: functional
Rattus norvegicus [27] = assay: Subacute antihypertensive activity in spontaneously hypertensive male Wistar Kyoto rat assessed as reduction in systolic blood pressure at 5 mg/kg administered via gavage and measured after 1 week by tail-artery manometry; type: functional, organism-based; conditions: time 1.0 weeks
Rattus norvegicus [28] = assay: Subacute antihypertensive activity in spontaneously hypertensive male Wistar Kyoto rat assessed as reduction in diastolic blood pressure at 5 mg/kg administered via gavage and measured after 1 week by tail-artery manometry; type: functional, organism-based; conditions: time 1.0 weeks
Rattus norvegicus [29] = assay: Subacute antihypertensive activity in spontaneously hypertensive male Wistar Kyoto rat assessed as reduction in systolic blood pressure at 5 mg/kg administered via gavage for 4 weeks and measured at 22 hrs post dose by tail-artery manometry; type: functional
Rattus norvegicus [30] = assay: Subacute antihypertensive activity in spontaneously hypertensive male Wistar Kyoto rat assessed as reduction in diastolic blood pressure at 5 mg/kg administered via gavage for 4 weeks and measured at 22 hrs post dose by tail-artery manometry; type: functional
Rattus norvegicus [31] = assay: Effect on spontaneously hypertensive male Wistar Kyoto rat assessed as reduction in serum ACE activity by measuring hippuric acid level at 5 mg/kg administered via gavage for 4 weeks and measured at 22 hrs post dose by RP-HPLC analysis; type: functional, organism-based
Rattus norvegicus [32] = assay: Effect on spontaneously hypertensive male Wistar Kyoto rat assessed as reduction in Ang II level in serum at 5 mg/kg administered via gavage for 4 weeks and measured at 22 hrs post dose by ELISA; type: functional, organism-based
Rattus norvegicus [33] = species on record: Rattus norvegicus; assay: Prevention of gut microbiota dysbiosis in spontaneously hypertensive male Wistar Kyoto rat model assessed as increase in shannon indices; type: functional, organism-based
Rattus norvegicus [34] = species on record: Rattus norvegicus; assay: Prevention of gut microbiota dysbiosis in spontaneously hypertensive male Wistar Kyoto rat model assessed as increase in simpson indices; type: functional, organism-based
Rattus norvegicus [35] = species on record: Rattus norvegicus; assay: Prevention of gut microbiota dysbiosis in spontaneously hypertensive male Wistar Kyoto rat model assessed as fold increase in lachnospiraceae abundance; type: functional
Rattus norvegicus [36] = species on record: Rattus norvegicus; assay: Prevention of gut microbiota dysbiosis in spontaneously hypertensive male Wistar Kyoto rat model assessed as fold increase in rikenellaceae abundance; type: functional
Rattus norvegicus [37] = species on record: Rattus norvegicus; assay: Prevention of gut microbiota dysbiosis in spontaneously hypertensive male Wistar Kyoto rat model assessed as fold increase in ruminococcaceae abundance; type: functional
Rattus norvegicus [38] = species on record: Rattus norvegicus; assay: Prevention of gut microbiota dysbiosis in spontaneously hypertensive male Wistar Kyoto rat model assessed as fold increase in ruminococcaceae UCG-014 abundance; type: functional
Rattus norvegicus [39] = species on record: Rattus norvegicus; assay: Prevention of gut microbiota dysbiosis in spontaneously hypertensive male Wistar Kyoto rat model assessed as fold increase in oscillibacter abundance; type: functional
Rattus norvegicus [40] = species on record: Rattus norvegicus; assay: Prevention of gut microbiota dysbiosis in spontaneously hypertensive male Wistar Kyoto rat model assessed as decrease in parabacteroides abundance relative to control; type: functional; design: scale not given: the % may be the effect or the level left
Rattus norvegicus [41] = species on record: Rattus norvegicus; assay: Prevention of gut microbiota dysbiosis in spontaneously hypertensive male Wistar Kyoto rat model assessed as decrease in streptococcus abundance relative to control; type: functional; design: scale not given: the % may be the effect or the level left
Rattus norvegicus [42] = species on record: Rattus norvegicus; assay: Prevention of gut microbiota dysbiosis in spontaneously hypertensive male Wistar Kyoto rat model assessed as fold increase in roseburia abundance; type: functional
Rattus norvegicus [43] = species on record: Rattus norvegicus; assay: Prevention of gut microbiota dysbiosis in spontaneously hypertensive male Wistar Kyoto rat model assessed as fold increase in turicibacter abundance; type: functional

T1 sequence (P12821 whole entry): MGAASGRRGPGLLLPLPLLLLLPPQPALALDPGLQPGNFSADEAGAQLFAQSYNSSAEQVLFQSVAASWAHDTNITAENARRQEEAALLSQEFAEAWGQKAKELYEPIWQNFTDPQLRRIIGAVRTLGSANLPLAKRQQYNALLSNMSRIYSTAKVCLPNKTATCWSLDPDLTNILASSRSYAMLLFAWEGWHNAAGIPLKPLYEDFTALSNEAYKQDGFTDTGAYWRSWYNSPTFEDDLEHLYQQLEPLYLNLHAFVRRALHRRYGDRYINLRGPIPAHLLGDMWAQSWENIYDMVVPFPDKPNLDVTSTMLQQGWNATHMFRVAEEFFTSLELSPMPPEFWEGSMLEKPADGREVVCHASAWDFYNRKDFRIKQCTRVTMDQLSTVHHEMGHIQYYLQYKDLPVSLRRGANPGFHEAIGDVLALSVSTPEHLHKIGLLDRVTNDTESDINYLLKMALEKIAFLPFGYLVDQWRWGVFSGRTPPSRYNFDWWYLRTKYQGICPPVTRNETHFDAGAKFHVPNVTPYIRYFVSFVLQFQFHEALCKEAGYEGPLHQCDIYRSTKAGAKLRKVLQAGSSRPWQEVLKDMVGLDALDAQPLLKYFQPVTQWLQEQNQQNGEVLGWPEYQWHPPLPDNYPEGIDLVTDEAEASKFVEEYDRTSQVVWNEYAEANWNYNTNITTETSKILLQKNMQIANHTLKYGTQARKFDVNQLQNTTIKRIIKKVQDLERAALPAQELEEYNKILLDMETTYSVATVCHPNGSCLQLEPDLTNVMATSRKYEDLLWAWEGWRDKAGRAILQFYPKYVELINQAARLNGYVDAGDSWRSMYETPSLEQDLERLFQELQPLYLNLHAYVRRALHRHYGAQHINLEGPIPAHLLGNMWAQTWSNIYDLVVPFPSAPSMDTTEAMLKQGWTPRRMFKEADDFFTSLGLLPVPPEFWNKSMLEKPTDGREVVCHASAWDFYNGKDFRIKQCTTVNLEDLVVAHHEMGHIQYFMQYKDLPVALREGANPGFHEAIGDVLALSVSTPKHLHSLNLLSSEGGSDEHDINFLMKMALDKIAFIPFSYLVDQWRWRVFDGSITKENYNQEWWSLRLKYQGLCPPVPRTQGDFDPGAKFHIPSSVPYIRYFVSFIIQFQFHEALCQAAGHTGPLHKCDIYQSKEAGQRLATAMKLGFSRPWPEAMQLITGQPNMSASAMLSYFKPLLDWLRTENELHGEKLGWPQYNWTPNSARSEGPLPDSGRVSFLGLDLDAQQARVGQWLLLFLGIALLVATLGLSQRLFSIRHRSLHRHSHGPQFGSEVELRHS

## CC[C@H](C)[C@H](NC(=O)[C@H](CCCCN)NC(=O)[C@H](C)NC(=O)[C@@H](N)CCCCN)C(=O)O (H-KAKI-OH)
[1]
  pIC50: 2.16

## NCCCC[C@H](N[C@@H](CCc1ccccc1)C(=O)O)C(=O)N1CCC[C@H]1C(=O)O [LISINOPRIL ANHYDROUS]
[2]
  -TdeltaS: -7.21 kcal/mol
[3]
  deltaH: -3.21 kcal/mol
[4]
  deltaS: 24.2 cal/mol.K
[5]
  Activity: Active
Rattus norvegicus [6]
  Activity: 33 mmHg
Rattus norvegicus [7]
  Activity: 28 mmHg
Rattus norvegicus [8]
  Activity: 39 mmHg
Rattus norvegicus [9]
  Activity: 32 mmHg
Rattus norvegicus [10]
  Activity: Active
Rattus norvegicus [11]
  Activity: Active
Rattus norvegicus [12]
  Activity: inactive
Rattus norvegicus [13]
  Activity: inactive
Rattus norvegicus [14]
  Activity: inactive
Rattus norvegicus [15]
  Activity: Active
Rattus norvegicus [16]
  Activity: Active
Rattus norvegicus [17]
  Activity: 76%
Rattus norvegicus [18]
  Activity: inactive

## CC(C)C[C@H](NC(=O)[C@H](Cc1c[nH]c2ccccc12)NC(=O)[C@H](CCCCN)NC(=O)[C@H](Cc1ccccc1)NC(=O)[C@@H]1CCCN1C(=O)[C@H](CC(N)=O)NC(=O)[C@@H](NC(=O)[C@@H](NC(=O)[C@@H](N)C(C)C)[C@@H](C)O)C(C)C)C(=O)N1CCC[C@H]1C(=O)O (H-VTVNPFKWLP-OH)
[19]
  pIC50: 5.26

## CSCC[C@H](NC(=O)[C@H](CCCCN)NC(=O)[C@H](C)NC(=O)[C@@H](N)CCCCN)C(=O)O (H-KAKM-OH)
[1]
  pIC50: 3.10

## C[C@H](NC(=O)[C@H](CCCCN)NC(=O)[C@H](C)NC(=O)[C@@H](N)CCCCN)C(=O)O (H-KAKA-OH)
[1]
  pIC50: 3.18

## CC(C)C[C@H](NC(=O)[C@H](CO)NC(=O)[C@@H](NC(=O)CNC(=O)CNC(=O)[C@H](Cc1ccc(O)cc1)NC(=O)CNC(=O)[C@@H](N)CCCCN)C(C)C)C(=O)N1CCC[C@H]1C(=O)N[C@@H](CCC(=O)O)C(=O)N[C@@H](Cc1c[nH]c2ccccc12)C(=O)O (H-KGYGGVSLPEW-OH)
Rattus norvegicus [20]
  Activity: 20 mmHg
Rattus norvegicus [21]
  Activity: 27 mmHg

## C[C@H](NC(=O)[C@@H](N)CCCCN)C(=O)N[C@@H](CCCCN)C(=O)N[C@@H](Cc1c[nH]c2ccccc12)C(=O)O (H-KAKW-OH)
[2]
  -TdeltaS: -1.57 kcal/mol
[3]
  deltaH: -8.31 kcal/mol
[1]
  pIC50: 5.69
[4]
  deltaS: 5.28 cal/mol.K
[22]
  deltaG: -9.88 kcal/mol
[23]
  pKd: 7.24
[24]
  Activity: Active
Rattus norvegicus [25]
  Activity: 20 mmHg
Rattus norvegicus [26]
  Activity: 18 mmHg
Rattus norvegicus [27]
  Activity: Active
Rattus norvegicus [28]
  Activity: Active
Rattus norvegicus [29]
  Activity: 11 mmHg
Rattus norvegicus [30]
  Activity: 12 mmHg
Rattus norvegicus [31]
  Activity: Active
Rattus norvegicus [32]
  Activity: Active
Rattus norvegicus [12]
  Activity: 28%
Rattus norvegicus [13]
  Activity: 105%
Rattus norvegicus [14]
  Activity: 45%
Rattus norvegicus [33]
  Activity: Active
Rattus norvegicus [34]
  Activity: Active
Rattus norvegicus [15]
  Activity: Active
Rattus norvegicus [16]
  Activity: Active
Rattus norvegicus [35]
  fold change (FC): 1.5
Rattus norvegicus [36]
  fold change (FC): 4.4
Rattus norvegicus [37]
  fold change (FC): 4.4
Rattus norvegicus [17]
  Activity: 85%
Rattus norvegicus [38]
  fold change (FC): 1.8
Rattus norvegicus [39]
  fold change (FC): 2.6
Rattus norvegicus [40]
  Activity: 44%
Rattus norvegicus [41]
  Activity: 43%
Rattus norvegicus [42]
  fold change (FC): 2
Rattus norvegicus [43]
  fold change (FC): 2.3

## CC(C)C[C@H](NC(=O)[C@H](Cc1c[nH]c2ccccc12)NC(=O)[C@@H](N)CCCCN)C(=O)N1CCC[C@H]1C(=O)O (H-KWLP-OH)
[19]
  pIC50: 5.30

## C[C@H](NC(=O)[C@@H](N)CCCCN)C(=O)N[C@@H](CCCCN)C(=O)O (H-Lys-Ala-Lys-OH)
[1]
  pIC50: 2.73
